In ChEMBL document CHEMBL1201862, “PubChem BioAssay data set” (2004):
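A five-concentration, 48-hour dose response in 96-well plates underlies each endpoint, interpolated linearly between surrounding concentrations. GI50: concentration for 50% inhibition of growth.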 Active and inactive are the calls of the source. No stated cut-off is given here; in the data, active = GI50 up to about 1.1 µM and inactive = higher.

Legend:
Assay in all cases: growth of human tumour cells (NCI), 48 h
786-0 = system: 786-0
BT-549 = system: BT-549
CCRF-CEM = system: CCRF-CEM
COLO 205 = system: COLO 205
HCC 2998 = system: HCC 2998
HCT-15 = system: HCT-15
HL-60 = system: HL-60
HOP-62 = system: HOP-62
Hs-578T = system: Hs-578T
KM12 = system: KM12
MDA-MB-231 = system: MDA-MB-231
NCI-H23 = system: NCI-H23
NCI-H460 = system: NCI-H460
NCI-H522 = system: NCI-H522
NCI/ADR-RES = system: NCI/ADR-RES
OVCAR-8 = system: OVCAR-8
SF-268 = system: SF-268
SF-539 = system: SF-539
SK-MEL-2 = system: SK-MEL-2
SNB-75 = system: SNB-75

SMILES | GI50 (786-0) | GI50 (BT-549) | GI50 (CCRF-CEM) | GI50 (COLO 205) | GI50 (HCC 2998) | GI50 (HCT-15) | GI50 (HL-60) | GI50 (HOP-62) | GI50 (Hs-578T) | GI50 (KM12) | GI50 (MDA-MB-231) | GI50 (NCI-H23) | GI50 (NCI-H460) | GI50 (NCI-H522) | GI50 (NCI/ADR-RES) | GI50 (OVCAR-8) | GI50 (SF-268) | GI50 (SF-539) | GI50 (SK-MEL-2) | GI50 (SNB-75)
CC(=O)O/C=C\OC1CCCC1(c1ccccc1)c1ccccc1 (stereo not given) | 3.21 µM (inactive) | 1.95 µM (inactive) | 2.37 µM (inactive) | 4.08 µM (inactive) | 8.91 µM (inactive) | 2.13 µM | 1.34 µM (inactive) | 12.4 µM (inactive) | 3.1 µM (inactive) | 3.49 µM (inactive) | 2.4 µM (inactive) | 2.49 µM (inactive) | 7.26 µM (inactive) | 10.1 µM (inactive) | 2.84 µM (inactive) | 2.42 µM (inactive) | 2.92 µM (inactive) | 1.73 µM (inactive) | 3.57 µM (inactive) | 3.35 µM (inactive)
Cc1cccc2c(N)c3cccc(C(=O)NCC[N+]4(Cc5ccc([N+](=O)[O-])cc5)CCOCC4)c3nc12 | 12.8 µM (inactive) | 47.5 µM (inactive) | 26.1 µM (inactive) | 45.9 µM (inactive) | 12.3 µM (inactive) | 45.1 µM | 18.2 µM (inactive) | 25.7 µM (inactive) | 7.26 µM (inactive) | 37.8 µM (inactive) | > 60.1 µM (inactive) | 35.9 µM (inactive) | 14.6 µM (inactive) | 13.5 µM (inactive) | > 95.1 µM (inactive) | 30.4 µM (inactive) | 15.6 µM (inactive) | 24.8 µM (inactive) | > 79.1 µM (inactive) | 16 µM (inactive)
CCOc1ccc2c(c1)C(/C(C(Cl)=C(Cl)Cl)=[N+](/[O-])OC(=O)c1ccccc1)=N2 | 72.4 µM (inactive) | 25.4 µM (inactive) | 36.9 µM (inactive) | 40.1 µM (inactive) | 59.2 µM (inactive) | 50.2 µM | 33.7 µM (inactive) | 65.8 µM (inactive) | 52.8 µM (inactive) | 35.9 µM (inactive) | 45.7 µM (inactive) | 48.6 µM (inactive) | 76 µM (inactive) | 35.2 µM (inactive) | 57.3 µM (inactive) | 72.8 µM (inactive) | 44.5 µM (inactive) | 79.3 µM (inactive) | 85.9 µM (inactive) | 56.8 µM (inactive)
COC(=O)C(Cc1ccccc1)NP(=O)(O)OCC1OC(n2cc(Br)c(=O)[nH]c2=O)CC1O (stereo not given) | > 100 µM (inactive) | > 100 µM (inactive) | > 100 µM (inactive) | > 100 µM (inactive) | > 100 µM (inactive) | > 100 µM | > 100 µM (inactive) | > 100 µM (inactive) | > 100 µM (inactive) | > 100 µM (inactive) | > 100 µM (inactive) | > 100 µM (inactive) | > 100 µM (inactive) | > 100 µM (inactive) | > 100 µM (inactive) | > 100 µM (inactive) | > 100 µM (inactive) | > 100 µM (inactive) | > 100 µM (inactive) | > 100 µM (inactive)
Cc1cc(C)c([S@@](=O)O[C@@H]2[C@H]3OC(C)(C)O[C@H]3O[C@@H]2[C@H]2COC(C)(C)O2)c(C)c1 | 26.9 µM (inactive) | 15.1 µM (inactive) | 25.2 µM (inactive) | 16.3 µM (inactive) | 22.9 µM (inactive) | 42.9 µM | 4.18 µM (inactive) | 21.5 µM (inactive) | 37.2 µM (inactive) | 18.2 µM (inactive) | 26.7 µM (inactive) | 31.6 µM (inactive) | 24.8 µM (inactive) | 8.65 µM (inactive) | 22 µM (inactive) | 19.1 µM (inactive) | 31.9 µM (inactive) | 19.5 µM (inactive) | 31.2 µM (inactive) | 21.8 µM (inactive)
N#CC(C#N)=CNC(N)=S | > 100 µM (inactive) | > 100 µM (inactive) | > 100 µM (inactive) | > 100 µM (inactive) | > 100 µM (inactive) | > 100 µM | > 100 µM (inactive) | > 100 µM (inactive) | > 100 µM (inactive) | > 100 µM (inactive) | > 100 µM (inactive) | > 100 µM (inactive) | > 100 µM (inactive) | > 100 µM (inactive) | > 100 µM (inactive) | > 100 µM (inactive) | > 100 µM (inactive) | > 100 µM (inactive) | > 100 µM (inactive) | > 100 µM (inactive)
O=C(O)c1ccccc1CC1Cc2ccccc2C1=O (stereo not given) | > 100 µM (inactive) | > 100 µM (inactive) | > 100 µM (inactive) | > 100 µM (inactive) | > 100 µM (inactive) | > 100 µM | > 100 µM (inactive) | > 100 µM (inactive) | > 100 µM (inactive) | > 100 µM (inactive) | > 100 µM (inactive) | > 100 µM (inactive) | > 100 µM (inactive) | > 100 µM (inactive) | > 100 µM (inactive) | > 100 µM (inactive) | > 100 µM (inactive) | > 100 µM (inactive) | > 100 µM (inactive) | 64.7 µM (inactive)
Cc1ccc(/N=N/C(=N/NC(=O)c2ccccc2)c2ccc(N(CCC#N)CCC#N)cc2C)cc1 | 33.3 µM (inactive) | 48.3 µM (inactive) | 30.3 µM (inactive) | 35.2 µM (inactive) | 24.9 µM (inactive) | 25.3 µM | 12.2 µM (inactive) | 41.6 µM (inactive) | 13 µM (inactive) | 29.3 µM (inactive) | 31.4 µM (inactive) | 52.6 µM (inactive) | 20.3 µM (inactive) | 15.5 µM (inactive) | > 100 µM (inactive) | 39.4 µM (inactive) | 41.9 µM (inactive) | 19.3 µM (inactive) | 50.4 µM (inactive) | 32.7 µM (inactive)
COC(=O)[C@]1(C)CCC[C@]2(C)[C@H]3CC[C@]4(C(C)C)OO[C@@H](O4)[C@]34O[C@@H]4C[C@H]21 | 1.6 µM (inactive) | 4.81 µM (inactive) | 0.5 µM (active) | 2.14 µM (inactive) | 2.15 µM (inactive) | 2.16 µM | 1.68 µM (inactive) | 2.12 µM (inactive) | 2.63 µM (inactive) | 2.86 µM (inactive) | 4.11 µM (inactive) | 6.56 µM (inactive) | 1.88 µM (inactive) | 1.43 µM (inactive) | 3.57 µM (inactive) | 3.61 µM (inactive) | 2.24 µM (inactive) | 10.6 µM (inactive) | 14.3 µM (inactive) | 3.87 µM (inactive)
O=C(CSc1nc2ccc(Cl)cc2c(=O)n1-c1ccccc1)N/N=C1\C(=O)Nc2ccc(F)cc21 | 2.1 µM (inactive) | 1.85 µM (inactive) | 2.7 µM (inactive) | 2.21 µM (inactive) | 2.69 µM (inactive) | 1.96 µM | 3.66 µM (inactive) | 1.75 µM (inactive) | 4.25 µM (inactive) | 3.13 µM (inactive) | 2.76 µM (inactive) | 2.92 µM (inactive) | 3.7 µM (inactive) | 1.81 µM (inactive) | 2.65 µM (inactive) | 1.69 µM (inactive) | 2.82 µM (inactive) | 2.86 µM (inactive) | 1.95 µM (inactive) | 2.24 µM (inactive)
O=C(n1c(=O)n(-c2ccc([N+](=O)[O-])cc2)c(=O)n1C(=O)C(Cl)(Cl)Cl)C(Cl)(Cl)Cl | > 100 µM (inactive) | > 100 µM (inactive) | > 100 µM (inactive) | > 100 µM (inactive) | > 100 µM (inactive) | > 100 µM | > 100 µM (inactive) | > 100 µM (inactive) | > 100 µM (inactive) | > 100 µM (inactive) | > 100 µM (inactive) | > 100 µM (inactive) | > 100 µM (inactive) | > 100 µM (inactive) | > 100 µM (inactive) | > 100 µM (inactive) | > 100 µM (inactive) | > 100 µM (inactive) | > 100 µM (inactive) | > 100 µM (inactive)
Cc1cc(C)n(-c2nc3ccccc3c(=O)[nH]2)n1 | 2.24 µM (inactive) | 18.8 µM (inactive) | 0.356 µM (active) | 2.43 µM (inactive) | 14.8 µM (inactive) | 2.11 µM | 1.32 µM (inactive) | 2.29 µM (inactive) | 24.8 µM (inactive) | 5.94 µM (inactive) | 11 µM (inactive) | 7.96 µM (inactive) | 1.21 µM (inactive) | 2.81 µM (inactive) | 1.53 µM (inactive) | 0.863 µM (active) | 4.1 µM (inactive) | 4.4 µM (inactive) | 8.47 µM (inactive) | 14.1 µM (inactive)
CC(C)C1CC(CO)(CNc2nc(N)nc(Cl)c2/C=N\O)C1 (stereo not given) | 18.2 µM (inactive) | 11.7 µM (inactive) | 13.6 µM (inactive) | 2.37 µM (inactive) | 3.94 µM (inactive) | 15.7 µM | 4.6 µM (inactive) | 21.9 µM (inactive) | 15.9 µM (inactive) | 2.03 µM (inactive) | 12.6 µM (inactive) | 0.519 µM (active) | 0.685 µM (active) | 4.53 µM (inactive) | 3.42 µM (inactive) | 15.5 µM (inactive) | 22.4 µM (inactive) | 16.8 µM (inactive) | 12 µM (inactive) | 12.5 µM (inactive)
N#CC(=N)c1ncn(-c2ccc(N)cc2)c1N | > 100 µM (inactive) | > 100 µM (inactive) | > 100 µM (inactive) | > 100 µM (inactive) | > 100 µM (inactive) | > 100 µM | > 100 µM (inactive) | > 100 µM (inactive) | > 100 µM (inactive) | > 100 µM (inactive) | > 100 µM (inactive) | > 100 µM (inactive) | > 100 µM (inactive) | > 100 µM (inactive) | > 100 µM (inactive) | > 100 µM (inactive) | > 100 µM (inactive) | > 100 µM (inactive) | > 100 µM (inactive) | > 100 µM (inactive)
